Laboratory results published in PubChem BioAssay AID1845197 (Molecular Pharmacology Branch, DTP, NCI, 2023).

System: 349418-098-R tumor spheroid viability
Test: Anticancer human tumor 349418-098-R patient-derived lung adenocarcinoma cell line growth inhibition
Conditions: spheroids with HUVEC and MSC; for IC50: curve of first compound; for viability, T/C: stronger effect = lower value
Method in brief: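 Complex tumor spheroids combined malignant cells with endothelial cells and mesenchymal stem cells. DNA-damaging drugs and DNA repair inhibitors were tested alone and in combination, at half-log dilutions down from clinical Cmax (top 10 microM if Cmax unknown), 0.25% DMSO final.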
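Note: spheroids exposed to compound for 7 days before measurement.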
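Throughout, for viability, T/C: percent of vehicle control viability with 100% = DMSO-treated spheroids.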

**Q.** Cc1sc2c(c1C)C(c1ccc(Cl)cc1)=NC(CC(=O)Nc1ccc(O)cc1)c1nnc(C)n1-2 (stereo not given) + Cn1nnc2c(C(N)=O)ncn2c1=O was tested. Which IC50 (second compound 1 µM) did it give?
**A.** 0.143 µM

**Q.** What about the IC50 (second compound 3.16 µM) of the same molecule?
**A.** 0.133 µM

**Q.** What about the IC50 (second compound 10 µM) of the same molecule?
**A.** 0.129 µM

**Q.** And the IC50 (second compound 31.6 µM)?
**A.** 0.154 µM

**Q.** What about the IC50 (second compound 100 µM) of the same molecule?
**A.** 0.129 µM

**Q.** And the viability, T/C (second compound 1 µM, first compound 0.00949 µM)?
**A.** 99%

**Q.** What about the viability, T/C (second compound 1 µM, first compound 0.03 µM) of the same molecule?
**A.** 102%

**Q.** What about the viability, T/C (second compound 1 µM, first compound 0.0949 µM) of the same molecule?
**A.** 67.8%

**Q.** What about the viability, T/C (second compound 1 µM, first compound 0.3 µM) of the same molecule?
**A.** 16.6%

**Q.** And the viability, T/C (second compound 1 µM, first compound 0.949 µM)?
**A.** 1.96%

**Q.** And the viability, T/C (second compound 1 µM, first compound 3 µM)?
**A.** 0.51%

**Q.** What about the viability, T/C (second compound 3.16 µM, first compound 0.00949 µM) of the same molecule?
**A.** 99.2%

**Q.** And the viability, T/C (second compound 3.16 µM, first compound 0.03 µM)?
**A.** 105%

**Q.** And the viability, T/C (second compound 3.16 µM, first compound 0.0949 µM)?
**A.** 62.7%

**Q.** What about the viability, T/C (second compound 3.16 µM, first compound 0.3 µM) of the same molecule?
**A.** 16.5%

**Q.** And the viability, T/C (second compound 3.16 µM, first compound 0.949 µM)?
**A.** 1.3%

**Q.** And the viability, T/C (second compound 3.16 µM, first compound 3 µM)?
**A.** 0.49%

**Q.** What about the viability, T/C (second compound 10 µM, first compound 0.00949 µM) of the same molecule?
**A.** 99.2%

**Q.** What about the viability, T/C (second compound 10 µM, first compound 0.03 µM) of the same molecule?
**A.** 102%

**Q.** What about the viability, T/C (second compound 10 µM, first compound 0.0949 µM) of the same molecule?
**A.** 63.7%

**Q.** And the viability, T/C (second compound 10 µM, first compound 0.3 µM)?
**A.** 10.9%

**Q.** And the viability, T/C (second compound 10 µM, first compound 0.949 µM)?
**A.** 1.25%

**Q.** And the viability, T/C (second compound 10 µM, first compound 3 µM)?
**A.** 0.39%

**Q.** What about the viability, T/C (second compound 31.6 µM, first compound 0.00949 µM) of the same molecule?
**A.** 103%

**Q.** What about the viability, T/C (second compound 31.6 µM, first compound 0.03 µM) of the same molecule?
**A.** 103%

**Q.** And the viability, T/C (second compound 31.6 µM, first compound 0.0949 µM)?
**A.** 72.1%

**Q.** What about the viability, T/C (second compound 31.6 µM, first compound 0.3 µM) of the same molecule?
**A.** 19.3%

**Q.** What about the viability, T/C (second compound 31.6 µM, first compound 0.949 µM) of the same molecule?
**A.** 1.26%

**Q.** What about the viability, T/C (second compound 31.6 µM, first compound 3 µM) of the same molecule?
**A.** 0.43%

**Q.** And the viability, T/C (second compound 100 µM, first compound 0.00949 µM)?
**A.** 106%

**Q.** What about the viability, T/C (second compound 100 µM, first compound 0.03 µM) of the same molecule?
**A.** 105%

**Q.** What about the viability, T/C (second compound 100 µM, first compound 0.0949 µM) of the same molecule?
**A.** 64.9%

**Q.** And the viability, T/C (second compound 100 µM, first compound 0.3 µM)?
**A.** 9.26%

**Q.** What about the viability, T/C (second compound 100 µM, first compound 0.949 µM) of the same molecule?
**A.** 0.75%

**Q.** And the viability, T/C (second compound 100 µM, first compound 3 µM)?
**A.** 0.45%

**Q.** With CNCc1ccc(-c2cc(-c3nc(-c4ccc(S(=O)(=O)C(C)C)cc4)cnc3N)on2)cc1 + COc1cc2c(cc1O)CCNC21CSC2c3c(OC(C)=O)c(C)c4c(c3C(COC1=O)N1C(O)C3Cc5cc(C)c(OC)c(O)c5C(C21)N3C)OCO4 as the molecule, how does the IC50 (second compound 30 pM) read?
**A.** 0.448 µM

**Q.** And the IC50 (second compound 94.9 pM)?
**A.** 0.202 µM

**Q.** What about the IC50 (second compound 0.0003 µM) of the same molecule?
**A.** 0.162 µM

**Q.** What about the IC50 (second compound 0.000949 µM) of the same molecule?
**A.** < 0.00949 µM

**Q.** And the IC50 (second compound 0.003 µM)?
**A.** < 0.00949 µM

**Q.** And the viability, T/C (second compound 30 pM, first compound 0.00949 µM)?
**A.** 105%

**Q.** And the viability, T/C (second compound 30 pM, first compound 0.03 µM)?
**A.** 91.3%

**Q.** What about the viability, T/C (second compound 30 pM, first compound 0.0949 µM) of the same molecule?
**A.** 87.8%

**Q.** And the viability, T/C (second compound 30 pM, first compound 0.3 µM)?
**A.** 69.6%

**Q.** And the viability, T/C (second compound 30 pM, first compound 0.949 µM)?
**A.** 14.5%

**Q.** And the viability, T/C (second compound 30 pM, first compound 3 µM)?
**A.** 5.77%

**Q.** And the viability, T/C (second compound 94.9 pM, first compound 0.00949 µM)?
**A.** 97%

**Q.** What about the viability, T/C (second compound 94.9 pM, first compound 0.03 µM) of the same molecule?
**A.** 97.5%

**Q.** And the viability, T/C (second compound 94.9 pM, first compound 0.0949 µM)?
**A.** 85.4%

**Q.** What about the viability, T/C (second compound 94.9 pM, first compound 0.3 µM) of the same molecule?
**A.** 31.1%

**Q.** And the viability, T/C (second compound 94.9 pM, first compound 0.949 µM)?
**A.** 10.2%

**Q.** And the viability, T/C (second compound 94.9 pM, first compound 3 µM)?
**A.** 3.32%

**Q.** What about the viability, T/C (second compound 0.0003 µM, first compound 0.00949 µM) of the same molecule?
**A.** 91.6%

**Q.** And the viability, T/C (second compound 0.0003 µM, first compound 0.03 µM)?
**A.** 93.5%

**Q.** What about the viability, T/C (second compound 0.0003 µM, first compound 0.0949 µM) of the same molecule?
**A.** 79.5%

**Q.** And the viability, T/C (second compound 0.0003 µM, first compound 0.3 µM)?
**A.** 15.6%

**Q.** And the viability, T/C (second compound 0.0003 µM, first compound 0.949 µM)?
**A.** 5.43%

**Q.** And the viability, T/C (second compound 0.0003 µM, first compound 3 µM)?
**A.** 2.26%

**Q.** And the viability, T/C (second compound 0.000949 µM, first compound 0.00949 µM)?
**A.** 0.44%

**Q.** And the viability, T/C (second compound 0.000949 µM, first compound 0.03 µM)?
**A.** 0.78%

**Q.** And the viability, T/C (second compound 0.000949 µM, first compound 0.0949 µM)?
**A.** 0.51%

**Q.** What about the viability, T/C (second compound 0.000949 µM, first compound 0.3 µM) of the same molecule?
**A.** 0.68%

**Q.** What about the viability, T/C (second compound 0.000949 µM, first compound 0.949 µM) of the same molecule?
**A.** 0.41%

**Q.** And the viability, T/C (second compound 0.000949 µM, first compound 3 µM)?
**A.** 0.11%

**Q.** And the viability, T/C (second compound 0.003 µM, first compound 0.00949 µM)?
**A.** 1.46%

**Q.** What about the viability, T/C (second compound 0.003 µM, first compound 0.03 µM) of the same molecule?
**A.** 1.27%

**Q.** And the viability, T/C (second compound 0.003 µM, first compound 0.0949 µM)?
**A.** 0.93%

**Q.** What about the viability, T/C (second compound 0.003 µM, first compound 0.3 µM) of the same molecule?
**A.** 1.07%

**Q.** And the viability, T/C (second compound 0.003 µM, first compound 0.949 µM)?
**A.** 1.05%

**Q.** What about the viability, T/C (second compound 0.003 µM, first compound 3 µM) of the same molecule?
**A.** 0.22%
